Laboratory results taken from ChEMBL document CHEMBL5029152, “Discovery of Highly Potent and Selective IRAK1 Degraders to Probe Scaffolding Functions of IRAK1 in ABC DLBCL” (J Med Chem, 2021).

How the values were obtained:
[1] = target: T1, Interleukin-1 receptor-associated kinase 4 (Homo sapiens, UniProt Q9NWZ3); assay: (§1) Inhibition of full length human N-terminal GST-fusion tagged IRAK4 expressed in baculovirus expression system using FAM-labelled peptide as substrate preincubated for 10 mins followed by substrate addition and further incubated for 1 hr in presence of ATP at Km concentration by caliper mobility shift assay
T1 sequence (Q9NWZ3 whole entry): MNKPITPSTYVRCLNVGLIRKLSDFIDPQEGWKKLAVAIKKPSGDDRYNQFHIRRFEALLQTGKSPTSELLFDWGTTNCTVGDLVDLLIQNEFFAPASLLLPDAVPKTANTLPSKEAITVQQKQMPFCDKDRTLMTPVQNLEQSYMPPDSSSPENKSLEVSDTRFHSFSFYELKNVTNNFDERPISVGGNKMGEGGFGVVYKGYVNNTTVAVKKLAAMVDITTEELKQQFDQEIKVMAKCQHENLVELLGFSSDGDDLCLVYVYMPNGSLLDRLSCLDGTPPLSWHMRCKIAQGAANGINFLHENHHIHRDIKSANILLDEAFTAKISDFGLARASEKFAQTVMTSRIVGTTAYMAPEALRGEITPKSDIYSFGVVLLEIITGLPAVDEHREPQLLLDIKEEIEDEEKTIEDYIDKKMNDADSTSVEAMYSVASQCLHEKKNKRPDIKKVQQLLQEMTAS

[2] = target: T2, von Hippel-Lindau disease tumor suppressor/Interleukin-1 receptor-associated kinase 1 (Homo sapiens, UniProt P51617+P40337); assay: Protac activity at IRAK1/VHL E3 ligase in HEK293T cells assessed as induction of IRAK1 degradation at 10 uM measured after 24 hrs by Western blot analysis relative to control; format: cell-based
Target sequence in this assay (P40337 whole entry, looked up, the tested form may be a part): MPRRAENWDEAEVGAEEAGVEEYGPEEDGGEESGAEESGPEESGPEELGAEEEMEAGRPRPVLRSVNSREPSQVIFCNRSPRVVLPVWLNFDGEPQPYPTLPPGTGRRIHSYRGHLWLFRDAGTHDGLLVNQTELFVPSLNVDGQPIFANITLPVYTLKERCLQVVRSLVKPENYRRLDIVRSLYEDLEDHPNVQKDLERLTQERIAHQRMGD
Target sequence in this assay (P51617 whole entry, looked up, the tested form may be a part): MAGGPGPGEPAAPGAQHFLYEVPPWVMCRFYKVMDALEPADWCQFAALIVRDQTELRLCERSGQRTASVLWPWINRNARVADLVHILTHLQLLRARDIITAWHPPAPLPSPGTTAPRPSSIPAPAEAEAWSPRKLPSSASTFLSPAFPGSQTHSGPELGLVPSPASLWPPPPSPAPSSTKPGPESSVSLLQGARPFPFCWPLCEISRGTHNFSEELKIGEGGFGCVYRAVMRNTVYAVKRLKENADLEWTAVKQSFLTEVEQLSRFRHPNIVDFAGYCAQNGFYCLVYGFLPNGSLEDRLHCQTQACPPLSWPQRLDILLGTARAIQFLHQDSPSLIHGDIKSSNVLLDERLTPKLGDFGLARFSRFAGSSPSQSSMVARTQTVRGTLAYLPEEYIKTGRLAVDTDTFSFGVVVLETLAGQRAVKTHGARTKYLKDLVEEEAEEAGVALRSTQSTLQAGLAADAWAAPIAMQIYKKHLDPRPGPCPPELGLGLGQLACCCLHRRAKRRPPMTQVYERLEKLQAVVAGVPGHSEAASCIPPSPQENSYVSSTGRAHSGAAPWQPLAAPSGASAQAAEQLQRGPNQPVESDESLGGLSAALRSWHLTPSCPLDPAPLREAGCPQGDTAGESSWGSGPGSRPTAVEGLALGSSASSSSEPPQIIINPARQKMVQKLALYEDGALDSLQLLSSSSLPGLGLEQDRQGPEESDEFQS

[3] = target: Interleukin-1 receptor-associated kinase 1 (Homo sapiens, UniProt P51617); assay: as §1, with “truncated” for “full length”, “IRAK1 (194 to 712 residues)” for “IRAK4”
[4] = target: von Hippel-Lindau disease tumor suppressor (Homo sapiens, UniProt P40337); assay: Displacement of 5-FAM-labelled DEALA-HypYIPMDDDFQLRSF peptide from VHL (unknown origin) by fluorescence polarization assay
[5] = target: T2, von Hippel-Lindau disease tumor suppressor/Interleukin-1 receptor-associated kinase 1; assay: Protac activity at IRAK1/VHL E3 ligase in HEK293T cells assessed as induction of IRAK1 degradation at >=1 uM measured after 8 hrs by Western blot analysis relative to control; format: cell-based; details: dose microM >=1, time 8.0 hrs
Target sequence in this assay (P40337 whole entry, looked up, the tested form may be a part): as the sequence (P40337 whole entry, looked up, the tested form may be a part) above
Target sequence in this assay (P51617 whole entry, looked up, the tested form may be a part): as the sequence (P51617 whole entry, looked up, the tested form may be a part) above

[6] = target: T2, von Hippel-Lindau disease tumor suppressor/Interleukin-1 receptor-associated kinase 1; assay: Protac activity at IRAK1/VHL E3 ligase in HEK293T cells assessed as induction of IRAK1 degradation at >=1 uM measured after 2 hrs by Western blot analysis relative to control; format: cell-based; details: dose microM >=1, time 2.0 hrs
Target sequence in this assay (P40337 whole entry, looked up, the tested form may be a part): as the sequence (P40337 whole entry, looked up, the tested form may be a part) above
Target sequence in this assay (P51617 whole entry, looked up, the tested form may be a part): as the sequence (P51617 whole entry, looked up, the tested form may be a part) above

[7] = target: T2, von Hippel-Lindau disease tumor suppressor/Interleukin-1 receptor-associated kinase 1; assay: Protac activity at IRAK1/VHL E3 ligase in HEK293T cells assessed as induction of IRAK1 degradation measured after 24 hrs by Western blot analysis; format: cell-based
Target sequence in this assay (P51617 whole entry, the tested form may be a part): as the sequence (P51617 whole entry, looked up, the tested form may be a part) above
Target sequence in this assay (P40337 whole entry, the tested form may be a part): as the sequence (P40337 whole entry, looked up, the tested form may be a part) above

[8] = Cytotoxicity against human HBL1 cells assessed as cell growth inhibition measured after 12 days by WST-8 assay; format: functional, cell-based; details: HBL1, 288 h
OCI-Ly10 = assay: Cytotoxicity against human OCILY10 cells assessed as reduction in cell viability measured after 12 days by CellTiter-Glo assay; format: functional; details: time 12 day
[9] = Cytotoxicity against human HBL1 cells assessed as reduction in cell viability measured after 12 days by CellTiter-Glo assay; format: functional; details: time 12 day

Sequence of Interleukin-1 receptor-associated kinase 1 (P51617 whole entry, the tested form may be a part): as the sequence (P51617 whole entry, looked up, the tested form may be a part) above
Sequence of von Hippel-Lindau disease tumor suppressor (P40337 whole entry): as the sequence (P40337 whole entry, looked up, the tested form may be a part) above

SMILES | IC50 [1] [nM] | %max [2] [%] | IC50 [3] [nM] | IC50 [4] [nM] | Activity [5] [%] | Activity [6] [%] | DC50 [7] [nM] | IC50 [8] [nM] | Activity (OCI-Ly10) [µM] | Activity [9] [µM]
COc1cc(N2CCC(OCC(=O)N[C@H](C(=O)N3C[C@H](O)C[C@H]3C(=O)NCc3ccc(-c4scnc4C)cc3)C(C)(C)C)CC2)ccc1NC(=O)c1cccc(-c2ccn[nH]2)n1 | 260 | 95 | 60 | 1400 |  |  |  |  |  | 
COc1cc(N2CCN(CCC(=O)N[C@H](C(=O)N3C[C@H](O)C[C@H]3C(=O)NCc3ccc(-c4scnc4C)cc3)C(C)(C)C)CC2)ccc1NC(=O)c1cccc(-c2cc[nH]n2)n1 | 368 | 88 | 80 | 1650 | > 90 | 50 | 134 |  |  | 
COc1cc(N2CCOCC2)ccc1NC(=O)c1cccc(-c2ccn[nH]2)n1 | 24 |  | 23 |  |  |  |  | 2800 |  | 
COc1cc(N2CCC(OCC(=O)N[C@H](C(=O)N3C[C@@H](O)C[C@H]3C(=O)N[C@@H](C)c3ccc(-c4scnc4C)cc3)C(C)(C)C)CC2)ccc1NC(=O)c1cccc(-c2ccn[nH]2)n1 | 320 | 18 | 79 | > 10000 |  |  | > 10000 |  | 3 | 1.5
